Laboratory results taken from patent US20240270762A1, “PENICILLIN-BINDING PROTEIN INHIBITORS” (priority 2021, published 2024).
pEC50, pIC50: −log10 of the molar value. Converted amounts (≈) assume the structure as drawn.

What was measured:
[1] = target: T1, PBP3 from Escherichia coli (K-12) (Escherichia coli, UniProt P0AD68); experiment: Bocillin-FL fluorescence polarization competition binding, E. coli PBP3
T1 construct: made in house
How it was run: (§1)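 Purified PBP was preincubated with inhibitor (E. coli PBP3 1.5 μM, 30 min; P. aeruginosa PBP3 0.75 μM, A. baumannii PBP3 0.2 μM and PBP1a 1 μM, 15 min), then Bocillin-FL (0.1 μM; 0.05 μM for PBP1a) added and FP read up to 60 min. EC50 = 50% loss of bound probe.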

[2] = target: T2, PBP3 from Acinetobacter baumannii (ATCC 19606) (Acinetobacter baumannii, UniProt A0ABX6CK25); experiment: Bocillin-FL fluorescence polarization competition binding, A. baumannii PBP3; conditions: fluorescence polarization competition binding assay using Bocillin-FL; read-out: A. baumannii PBP3 Potency
T2 sequence (A0ABX6CK25 64-610): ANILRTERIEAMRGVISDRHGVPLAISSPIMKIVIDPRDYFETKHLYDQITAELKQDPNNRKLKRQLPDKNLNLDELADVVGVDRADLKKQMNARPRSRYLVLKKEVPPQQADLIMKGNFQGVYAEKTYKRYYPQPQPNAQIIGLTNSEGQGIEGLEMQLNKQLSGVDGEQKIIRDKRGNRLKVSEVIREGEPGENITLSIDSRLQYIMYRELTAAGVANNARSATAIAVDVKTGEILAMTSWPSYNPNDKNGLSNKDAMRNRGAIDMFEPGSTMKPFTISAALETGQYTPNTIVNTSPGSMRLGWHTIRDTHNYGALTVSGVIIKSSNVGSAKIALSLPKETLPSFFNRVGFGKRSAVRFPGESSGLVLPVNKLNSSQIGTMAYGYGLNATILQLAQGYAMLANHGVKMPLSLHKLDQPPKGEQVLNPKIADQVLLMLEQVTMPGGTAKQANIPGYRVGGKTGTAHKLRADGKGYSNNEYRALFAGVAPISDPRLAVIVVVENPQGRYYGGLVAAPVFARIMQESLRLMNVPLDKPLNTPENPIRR
How it was run: as §1

[3] = test system: A. baumannii CDC-0036; experiment: microbe, parasite or virus in culture; type: cell-based; conditions: Acinetobacter baumannii, CDC0036, read-out: MIC, A. baumannii CDC-0036
[4] = target: T3, PBP3 from Pseudomonas aeruginosa (PAO1) (Pseudomonas aeruginosa, UniProt G3XD46); experiment: Bocillin-FL fluorescence polarization competition binding, P. aeruginosa PBP3; conditions: Binding affinity to P. aeruginosa PBP3; fluorescence polarization competition binding assay using Bocillin-FL; read-out: P. aeruginosa PBP3 Potency
T3 construct: made in house
How it was run: as §1

[5] = test system: P. aeruginosa ATCC 27853; experiment: microbe, parasite or virus in culture; type: cell-based; conditions: Pseudomonas aeruginosa, ATCC27853, read-out: Minimum inhibitory concentration, P. aeruginosa ATCC 27853

T3 sequence (G3XD46 whole entry): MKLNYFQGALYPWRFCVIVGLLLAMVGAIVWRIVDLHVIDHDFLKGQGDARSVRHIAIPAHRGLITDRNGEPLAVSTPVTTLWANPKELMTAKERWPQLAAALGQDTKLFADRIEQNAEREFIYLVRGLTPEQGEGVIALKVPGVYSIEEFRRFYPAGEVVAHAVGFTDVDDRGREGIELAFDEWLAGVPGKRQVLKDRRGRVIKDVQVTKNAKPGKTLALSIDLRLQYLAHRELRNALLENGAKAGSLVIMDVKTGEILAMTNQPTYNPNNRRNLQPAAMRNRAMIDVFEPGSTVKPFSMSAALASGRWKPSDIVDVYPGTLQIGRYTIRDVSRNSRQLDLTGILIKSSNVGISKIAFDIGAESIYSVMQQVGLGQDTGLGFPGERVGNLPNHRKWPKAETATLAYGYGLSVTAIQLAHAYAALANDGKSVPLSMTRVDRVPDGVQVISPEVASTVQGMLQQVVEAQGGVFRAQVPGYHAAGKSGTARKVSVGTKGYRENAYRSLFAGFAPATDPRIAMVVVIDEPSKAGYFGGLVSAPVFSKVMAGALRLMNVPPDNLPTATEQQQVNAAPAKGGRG
T1 sequence (P0AD68 1-577): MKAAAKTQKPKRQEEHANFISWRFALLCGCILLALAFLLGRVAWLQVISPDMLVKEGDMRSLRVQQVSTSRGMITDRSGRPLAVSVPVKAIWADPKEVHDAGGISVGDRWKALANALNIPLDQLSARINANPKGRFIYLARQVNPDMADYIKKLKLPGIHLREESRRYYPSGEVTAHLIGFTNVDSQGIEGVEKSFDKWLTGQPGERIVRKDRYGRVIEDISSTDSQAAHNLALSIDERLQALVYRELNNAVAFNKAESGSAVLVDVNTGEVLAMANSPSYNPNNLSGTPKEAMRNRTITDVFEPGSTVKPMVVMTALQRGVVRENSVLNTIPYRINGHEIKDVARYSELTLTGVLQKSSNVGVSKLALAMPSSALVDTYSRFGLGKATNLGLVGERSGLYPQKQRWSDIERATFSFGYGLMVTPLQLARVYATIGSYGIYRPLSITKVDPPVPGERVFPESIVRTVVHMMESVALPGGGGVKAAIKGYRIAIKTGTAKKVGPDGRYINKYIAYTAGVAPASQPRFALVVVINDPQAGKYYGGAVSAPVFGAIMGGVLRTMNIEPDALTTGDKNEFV

O=C(NCCCN1CCN(C(=O)NC(C(=O)N[C@H]2Cc3ccc(F)c(C(=O)O)c3OB2O)c2cc(F)c(O)c(O)c2Cl)C(=O)C1=O)c1cccc(O)c1F (stereo partly drawn) [Example 406, (3R)-3-(2-(2-chloro-5-fluoro-3,4-dihydroxyphenyl)-2-(4.-(3-(2-fluoro-3-hydroxybenzamido)propyl)-2,3-dioxopiperazine-1-carboxamido)acetamido)-7-fluoro-2-hydroxy-3,4-dihydro-2H-benzo[e][1,2]oxaborinine-8-carboxylic acid]
pEC50 [1]: > 5.00
pIC50 [2]: > 5.00
MIC [3]: 2 to 4 µg/mL (≈ 2.57 to 5.14 µM)
pIC50 [4]: > 5.00
MIC [5]: < 1 µg/mL

O=C(NCCCN1CCN(C(=O)NC(C(=O)N[C@H]2Cc3ccc(F)c(C(=O)O)c3OB2O)c2cc(F)c(O)c(O)c2Cl)C(=O)C1=O)c1cc(O)c(F)c(O)c1 (stereo partly drawn) [Example 416, (3R)-3-(2-(2-chloro-5-fluoro-3,4-dihydroxyphenyl)-2-(4-(3-(4-fluoro-3,5-dihydroxybenzamido)propyl)-2,3-dioxopiperazine-1-carboxamido)acetamido)-7-fluoro-2-hydroxy-3,4-dihydro-2H-benzo[e][1,2]oxaborinine-8-carboxylic acid]
pEC50 [1]: > 5.00
pIC50 [2]: > 5.00
MIC [3]: 2 to 4 µg/mL (≈ 2.52 to 5.04 µM)
pIC50 [4]: > 5.00
MIC [5]: < 1 µg/mL

O=C(NCCCN1CCN(C(=O)NC(C(=O)N[C@H]2Cc3ccc(F)c(C(=O)O)c3OB2O)c2cc(F)c(O)c(O)c2Cl)C(=O)C1=O)c1c(F)cncc1F (stereo partly drawn) [Example 402, (3R)-3-(2-(2-chloro-5-fluoro-3,4-dihydroxyphenyl)-2-(4-(3-(3,5-difluoroisonicotinamido)propyl)-2,3-dioxopiperazine-1-carboxamido)acetamido)-7-fluoro-2-hydroxy-3,4-dihydro-2H-benzo[e][1,2]oxaborinine-8-carboxylic acid]
pEC50 [1]: > 5.00
pIC50 [2]: > 5.00
MIC [3]: 2 to 4 µg/mL (≈ 2.56 to 5.12 µM)
pIC50 [4]: > 5.00
MIC [5]: 2 to 4 µg/mL (≈ 2.56 to 5.12 µM)

O=C(NCCCN1CCN(C(=O)NC(C(=O)N[C@H]2Cc3ccc(F)c(C(=O)O)c3OB2O)c2cc(F)c(O)c(O)c2Cl)C(=O)C1=O)c1c(F)ccc(O)c1F (stereo partly drawn) [Example 413, (3R)-3-(2-(2-chloro-5-fluoro-3,4-dihydroxyphenyl)-2-(4-(3-(2,6-difluoro-3-hydroxybenzamido)propyl)-2,3-dioxopiperazine-1-carboxamido)acetamido)-7-fluoro-2-hydroxy-3,4-dihydro-2H-benzo[e][1,2]oxaborinine-8-carboxylic acid]
pEC50 [1]: > 5.00
pIC50 [2]: > 5.00
MIC [3]: 2 to 4 µg/mL (≈ 2.51 to 5.03 µM)
pIC50 [4]: > 5.00
MIC [5]: < 1 µg/mL

O=C(O)c1c(F)ccc2c1OB(O)[C@@H](NC(=O)C(NC(=O)N1CCN(C3CCN(C(=O)Nc4cccc(O)c4)CC3)C(=O)C1=O)c1cc(F)c(O)c(O)c1Cl)C2 (stereo partly drawn) [Example 424, (3R)-3-(2-(2-chloro-5-fluoro-3,4-dihydroxyphenyl)-2-(4-(1-((3-hydroxyphenyl)carbamoyl)piperidin-4-yl)-2,3-dioxopiperazine-1-carboxamido)acetamido)-7-fluoro-2-hydroxy-3,4-dihydro-2H-benzo[e][1,2]oxaborinine-8-carboxylic acid]
pEC50 [1]: > 5.00
pIC50 [2]: > 5.00
MIC [3]: < 1 µg/mL
pIC50 [4]: > 5.00
MIC [5]: < 1 µg/mL

O=C(NCCCN1CCN(C(=O)N[C@@H](C(=O)N[C@H]2Cc3ccc(F)c(C(=O)O)c3OB2O)c2cc(F)c(O)c(O)c2Cl)C(=O)C1=O)c1cc(F)c(O)cc1F (single isomer, unassigned) [Example 473]
pEC50 [1]: > 5.00
pIC50 [2]: > 5.00
MIC [3]: 2 to 4 µg/mL (≈ 2.51 to 5.03 µM)
pIC50 [4]: > 5.00
MIC [5]: 2 to 4 µg/mL (≈ 2.51 to 5.03 µM)

O=C(O)c1c(F)ccc2c1OB(O)[C@@H](NC(=O)C(NC(=O)N1CCN(C3CCN(S(=O)(=O)c4ccc(O)cc4)CC3)C(=O)C1=O)c1cc(F)c(O)c(O)c1Cl)C2 (stereo partly drawn) [Example 429, (3R)-3-(2-(2-chloro-5-fluoro-3,4-dihydroxyphenyl)-2-(4-(1-((4-hydroxyphenyl)sulfonyl)piperidin-4-yl)-2,3-dioxopiperazine-1-carboxamido)acetamido)-7-fluoro-2-hydroxy-3,4-dihydro-2H-benzo[e][1,2]oxaborinine-8-carboxylic acid]
pEC50 [1]: > 5.00
pIC50 [2]: > 5.00
MIC [3]: 2 to 4 µg/mL (≈ 2.43 to 4.87 µM)
pIC50 [4]: > 5.00
MIC [5]: 2 to 4 µg/mL (≈ 2.43 to 4.87 µM)

O=C(NCCCN1CCN(C(=O)NC(C(=O)N[C@H]2Cc3ccc(F)c(C(=O)O)c3OB2O)c2cc(F)c(O)c(O)c2Cl)C(=O)C1=O)c1c(F)cncc1Cl (stereo partly drawn) [Example 403, (3R)-3-(2-(2-chloro-5-fluoro-3,4-dihydroxyphenyl)-2-(4-(3-(3-chloro-5-fluoroisonicotinamido)propyl)-2,3-dioxopiperazine-1-carboxamido)acetamido)-7-fluoro-2-hydroxy-3,4-dihydro-2H-benzo[e][1,2]oxaborinine-8-carboxylic acid]
pEC50 [1]: > 5.00
pIC50 [2]: > 5.00
MIC [3]: 2 to 4 µg/mL (≈ 2.51 to 5.02 µM)
pIC50 [4]: > 5.00
MIC [5]: 2 to 4 µg/mL (≈ 2.51 to 5.02 µM)

O=C(NCCCN1CCN(C(=O)NC(C(=O)N[C@H]2Cc3ccc(F)c(C(=O)O)c3OB2O)c2cc(F)c(O)c(O)c2Cl)C(=O)C1=O)c1cc(F)c(F)c(O)c1F (stereo partly drawn) [Example 404, (3R)-3-(2-(2-chloro-5-fluoro-3,4-dihydroxyphenyl)-2-(2,3-dioxo-4-(3-(2,4,5-trifluoro-3-hydroxybenzamido)propyl)piperazine-1-carboxamido)acetamido)-7-fluoro-2-hydroxy-3,4-dihydro-2H-benzo[e][1,2]oxaborinine-8-carboxylic acid]
pEC50 [1]: > 5.00
pIC50 [2]: > 5.00
MIC [3]: 2 to 4 µg/mL (≈ 2.46 to 4.91 µM)
pIC50 [4]: > 5.00
MIC [5]: 2 to 4 µg/mL (≈ 2.46 to 4.91 µM)

O=C(NCCCN1CCN(C(=O)NC(C(=O)N[C@H]2Cc3ccc(F)c(C(=O)O)c3OB2O)c2cc(F)c(O)c(O)c2Cl)C(=O)C1=O)c1c(F)cc(O)cc1Cl (stereo partly drawn) [Example 421, (3R)-3-(2-(2-chloro-5-fluoro-3,4-dihydroxyphenyl)-2-(4-(3-(2-chloro-6-fluoro-4-hydroxybenzamido)propyl)-2,3-dioxopiperazine-1-carboxamido)acetamido)-7-fluoro-2-hydroxy-3,4-dihydro-2H-benzo[e][1,2]oxaborinine-8-carboxylic acid]
pEC50 [1]: > 5.00
pIC50 [2]: > 5.00
MIC [3]: 2 to 4 µg/mL (≈ 2.46 to 4.92 µM)
pIC50 [4]: > 5.00
MIC [5]: 2 to 4 µg/mL (≈ 2.46 to 4.92 µM)

O=C(NCCCN1CCN(C(=O)N[C@@H](C(=O)N[C@H]2Cc3ccc(F)c(C(=O)O)c3OB2O)c2cc(F)c(O)c(O)c2Cl)C(=O)C1=O)c1c(F)cc(O)cc1F (racemic) [Example 420]
pEC50 [1]: > 5.00
pIC50 [2]: > 5.00
MIC [3]: 2 to 4 µg/mL (≈ 2.51 to 5.03 µM)
pIC50 [4]: > 5.00
MIC [5]: 2 to 4 µg/mL (≈ 2.51 to 5.03 µM)

O=C(NCCCN1CCN(C(=O)NC(C(=O)N[C@H]2Cc3ccc(F)c(C(=O)O)c3OB2O)c2cc(F)c(O)c(O)c2Cl)C(=O)C1=O)c1cc(F)ncc1F (mixture of isomers) [Example 405]
pEC50 [1]: > 5.00
pIC50 [2]: > 5.00
MIC [3]: 2 to 4 µg/mL
pIC50 [4]: > 5.00
MIC [5]: 2 to 4 µg/mL

O=C(NCCCN1CCN(C(=O)N[C@@H](C(=O)N[C@H]2Cc3ccc(F)c(C(=O)O)c3OB2O)c2cc(F)c(O)c(O)c2Cl)C(=O)C1=O)c1cc(F)nc(F)c1 (racemic) [Example 401]
pEC50 [1]: > 5.00
pIC50 [2]: > 5.00
MIC [3]: 2 to 4 µg/mL (≈ 2.56 to 5.12 µM)
pIC50 [4]: > 5.00
MIC [5]: 2 to 4 µg/mL (≈ 2.56 to 5.12 µM)

O=C(O)c1c(F)ccc2c1OB(O)[C@@H](NC(=O)C(NC(=O)N1CCN(C3CCN(C(=O)c4ccc(O)cc4)CC3)C(=O)C1=O)c1cc(F)c(O)c(O)c1Cl)C2 (stereo partly drawn) [Example 427, (3R)-3-(2-(2-chloro-5-fluoro-3,4-dihydroxyphenyl)-2-(4-(1-(4-hydroxybenzoyl)piperidin-4-yl)-2,3-dioxopiperazine-1-carboxamido)acetamido)-7-fluoro-2-hydroxy-3,4-dihydro-2H-benzo[e][1,2]oxaborinine-8-carboxylic acid]
pEC50 [1]: > 5.00
pIC50 [2]: > 5.00
MIC [3]: < 1 µg/mL
pIC50 [4]: > 5.00
MIC [5]: < 1 µg/mL

CN(CCCN1CCN(C(=O)NC(C(=O)N[C@H]2Cc3ccc(F)c(C(=O)O)c3OB2O)c2cc(F)c(O)c(O)c2Cl)C(=O)C1=O)C(=O)c1cccc(O)c1 (stereo partly drawn) [Example 310, (3R)-3-(2-(2-chloro-5-fluoro-3,4-dihydroxyphenyl)-2-(4-(3-(3-hydroxy-N-methylbenzamido)propyl)-2,3-dioxopiperazine-1-carboxamido)acetamido)-7-fluoro-2-hydroxy-3,4-dihydro-2H-benzo[e][1,2]oxaborinine-8-carboxylic acid]
pEC50 [1]: > 5.00
pIC50 [2]: > 5.00
MIC [3]: 2 to 4 µg/mL (≈ 2.58 to 5.17 µM)
pIC50 [4]: > 5.00
MIC [5]: < 1 µg/mL
